Measurements as given in PMC11033320, “Activation of p53 signaling and regression of breast and prostate carcinoma cells by spirooxindole-benzimidazole small molecules” (Frontiers in Pharmacology, 2024).

Assays:
HL-60(TB) = assay: NCI anticancer screening, Leukemia HL-60(TB); assay type: cell-based; settings: Homo sapiens, read-out: % Growth Inhibition (GI %)
Description: (§1) The compound has been processed according to standard method NCI-60 Human Tumor Cell Lines Screen for organic compound at development therapeutic program (DTP). Requests for access to this national resource can be submitted online at: […]

HOP-62 = assay: NCI anticancer screening, Non-Small Cell Lung Cancer HOP-62; assay type: cell-based; settings: Homo sapiens; HOP-62, 10 μM; read-out: % Growth Inhibition (GI %)
Description: as §1

UACC-257 = assay: NCI anticancer screening, Melanoma UACC-257; assay type: cell-based; settings: Homo sapiens; UACC-257, 10 μM; read-out: % Growth Inhibition (GI %)
Description: as §1

U251 = assay: NCI anticancer screening, CNS Cancer U251; assay type: cell-based; settings: Homo sapiens, U-251; U251, 10 μM; read-out: % Growth Inhibition (GI %)
Description: as §1

CCRF-CEM = assay: NCI anticancer screening, Leukemia CCRF-CEM; assay type: cell-based; settings: Homo sapiens, read-out: % Growth Inhibition (GI %)
Description: as §1

HOP-92 = assay: NCI anticancer screening, Non-Small Cell Lung Cancer HOP-92; assay type: cell-based; settings: Homo sapiens; HOP-92, 10 μM; read-out: % Growth Inhibition (GI %)
Description: as §1

UO-31 = assay: NCI anticancer screening, Renal Cancer UO-31; assay type: cell-based; settings: Homo sapiens; UO-31, 10 μM; read-out: % Growth Inhibition (GI %)
Description: as §1

NCI-H522 = assay: NCI anticancer screening, Non-Small Cell Lung Cancer NCI-H522; assay type: cell-based; settings: Homo sapiens; NCI-H522, 10 μM; read-out: % Growth Inhibition (GI %)
Description: as §1

OVCAR-3 = assay: NCI anticancer screening, Ovarian Cancer OVCAR-3; assay type: cell-based; settings: Homo sapiens; OVCAR-3, 10 μM; read-out: % Growth Inhibition (GI %)
Description: as §1

SK-MEL-5 = assay: NCI anticancer screening, Melanoma SK-MEL-5; assay type: cell-based; settings: Homo sapiens; SK-MEL-5, 10 μM; read-out: % Growth Inhibition (GI %)
Description: as §1

TK-10 = assay: NCI anticancer screening, Renal Cancer TK-10; assay type: cell-based; settings: Homo sapiens; TK-10, 10 μM; read-out: % Growth Inhibition (GI %)
Description: as §1

SK-MEL-2 = assay: NCI anticancer screening, Melanoma SK-MEL-2; assay type: cell-based; settings: Homo sapiens; SK-MEL-2, 10 μM; read-out: % Growth Inhibition (GI %)
Description: as §1

SF-268 = assay: NCI anticancer screening, CNS Cancer SF-268; assay type: cell-based; settings: Homo sapiens; SF-268, 10 μM; read-out: % Growth Inhibition (GI %)
Description: as §1

MDA-MB-435 = assay: NCI anticancer screening, Melanoma MDA-MB-435; assay type: cell-based; settings: Homo sapiens; MDA-MB-435, 10 μM; read-out: % Growth Inhibition (GI %)
Description: as §1

HCT-116 = assay: NCI anticancer screening, Colon Cancer HCT-116; assay type: cell-based; settings: Homo sapiens; HCT-116, 10 μM; read-out: % Growth Inhibition (GI %)
Description: as §1

SN12C = assay: NCI anticancer screening, Renal Cancer SN12C; assay type: cell-based; settings: Homo sapiens, read-out: % Growth Inhibition (GI %)
Description: as §1

MOLT-4 = assay: NCI anticancer screening, Leukemia MOLT-4; assay type: cell-based; settings: Homo sapiens; MOLT-4, 10 μM; read-out: % Growth Inhibition (GI %)
Description: as §1

CAKI-1 = assay: NCI anticancer screening, Renal Cancer CAKI-1; assay type: cell-based; settings: Homo sapiens; CAKI-1, 10 μM; read-out: % Growth Inhibition (GI %)
Description: as §1

MDA-MB-468 = assay: NCI anticancer screening, Breast Cancer MDA-MB-468; assay type: cell-based; settings: Homo sapiens, read-out: % Growth Inhibition (GI %)
Description: as §1

ACHN = assay: NCI anticancer screening, Renal Cancer ACHN; assay type: cell-based; settings: Homo sapiens, read-out: % Growth Inhibition (GI %)
Description: as §1

HT29 = assay: NCI anticancer screening, Colon Cancer HT29; assay type: cell-based; settings: Homo sapiens, HT-29; HT29, 10 μM; read-out: % Growth Inhibition (GI %)
Description: as §1

MCF7 = assay: NCI anticancer screening, Breast Cancer MCF7; assay type: cell-based; settings: Homo sapiens; MCF7, 10 μM; read-out: % Growth Inhibition (GI %)
Description: as §1

MALME-3M = assay: NCI anticancer screening, Melanoma MALME-3M; assay type: cell-based; settings: Homo sapiens, read-out: % Growth Inhibition (GI %)
Description: as §1

[1] = MTT cytotoxicity to normal human lung fibroblast Wi-38 cell line; assay type: cell-based; settings: Wi-38 normal lung fibroblast cells, mean ± SEM, read-out: percentage of Wi-38 viability
Protocol: Normal human lung fibroblast Wi-38 cell line was used to detect cytotoxicity of the studied compounds (Table S8). Wi-38 cell line was cultured in DMEM medium-contained 10% fetal bovine serum (FBS), seeded as 5x10^3 cells per well in 96-well cell culture plate and incubated at 37 °C in 5% CO2 incubator. After 24 h for cell attachment, serial concentrations of the synthetic compounds were incubated with Wi-38 cells for 72 h. Cell viability was assayed by MTT method (Mosmann, 1983). Twenty microliters of 5 mg/ml MTT (Sigma, USA) was added to each well and the plate was incubated at 37 °C for 3 h. Then MTT solution was removed, 100 µl DMSO was added and the absorbance of each well was measured with a microplate reader (BMG LabTech, Germany) at 570 nm.

HCC-2998 = assay: NCI anticancer screening, Colon Cancer HCC-2998; assay type: cell-based; settings: Homo sapiens; HCC-2998, 10 μM; read-out: % Growth Inhibition (GI %)
Description: as §1

A549/ATCC = assay: NCI anticancer screening, Non-Small Cell Lung Cancer A549/ATCC; assay type: cell-based; settings: Homo sapiens, read-out: % Growth Inhibition (GI %)
Description: as §1

SW-620 = assay: NCI anticancer screening, Colon Cancer SW-620; assay type: cell-based; settings: Homo sapiens; SW-620, 10 μM; read-out: % Growth Inhibition (GI %)
Description: as §1

HCT-15 = assay: NCI anticancer screening, Colon Cancer HCT-15; assay type: cell-based; settings: Homo sapiens; HCT-15, 10 μM; read-out: % Growth Inhibition (GI %)
Description: as §1

OVCAR-5 = assay: NCI anticancer screening, Ovarian Cancer OVCAR-5; assay type: cell-based; settings: Homo sapiens; OVCAR-5, 10 μM; read-out: % Growth Inhibition (GI %)
Description: as §1

HS 578T = assay: NCI anticancer screening, Breast Cancer HS 578T; assay type: cell-based; settings: Homo sapiens, read-out: % Growth Inhibition (GI %)
Description: as §1

786-0 = assay: NCI anticancer screening, Renal Cancer 786-0; assay type: cell-based; settings: Homo sapiens; 786-0, 10 μM; read-out: % Growth Inhibition (GI %)
Description: as §1

SNB-75 = assay: NCI anticancer screening, CNS Cancer SNB-75; assay type: cell-based; settings: Homo sapiens; SNB-75, 10 μM; read-out: % Growth Inhibition (GI %)
Description: as §1

NCI/ADR-RES = assay: NCI anticancer screening, Ovarian Cancer NCI/ADR-RES; assay type: cell-based; settings: Homo sapiens, read-out: % Growth Inhibition (GI %)
Description: as §1

CN(C)c1ccc([C@@H]2C3CSCN3[C@]3(C(=O)Nc4ccccc43)[C@H]2C(=O)c2nc3ccccc3[nH]2)cc1 (stereo partly drawn) [Compound 6k, (3S,6′R)-6'-(1H-Benzo [d]imidazole-2-carbonyl)-7'-(4-(dimethylamino)phenyl)-3′,6′,7′,7a′-tetrahydro-1′H-spiro [indoline-3.5′-pyrrolo [1,2-c]thiazol]-2-one]
inhibition at 10 µM (HL-60(TB)): 99.5%
inhibition at 10 µM (HOP-62): 95.7%
inhibition at 10 µM (UACC-257): 90.2%
inhibition at 10 µM (U251): 103%
inhibition at 10 µM (CCRF-CEM): 99.9%
inhibition at 10 µM (HOP-92): 104%
inhibition at 10 µM (UO-31): 73.4%
inhibition at 10 µM (NCI-H522): 87.9%
inhibition at 10 µM (OVCAR-3): 103%
inhibition at 10 µM (SK-MEL-5): 98.2%
inhibition at 10 µM (TK-10): 111%
inhibition at 10 µM (SK-MEL-2): 106%
inhibition at 10 µM (SF-268): 92.1%
inhibition at 10 µM (MDA-MB-435): 96.8%
inhibition at 10 µM (HCT-116): 102%
inhibition at 10 µM (SN12C): 94%
inhibition at 10 µM (MOLT-4): 85.6%
inhibition at 10 µM (CAKI-1): 85.8%
inhibition at 10 µM (MDA-MB-468): 99.8%
melting point: 178 to 180 °C
inhibition at 10 µM (ACHN): 99%
inhibition at 10 µM (HT29): 99.3%
inhibition at 10 µM (MCF7): 93.6%
inhibition at 10 µM (MALME-3M): 94.7%
viability at 72 h, 5 µM [1]: 38.6 ± 3.02%
inhibition at 10 µM (HCC-2998): 102%
inhibition at 10 µM (A549/ATCC): 94.2%
inhibition at 10 µM (SW-620): 100%
inhibition at 10 µM (HCT-15): 99.1%
inhibition at 10 µM (OVCAR-5): 95.6%
inhibition at 10 µM (HS 578T): 91.7%
inhibition at 10 µM (786-0): 103%
inhibition at 10 µM (SNB-75): 88.3%
inhibition at 10 µM (NCI/ADR-RES): 96%
